Data on 3 compounds can be found in article PMC5913134, “The IL-33-PIN1-IRAK-M axis is critical for type 2 immunity in IL-33-induced allergic airway inflammation” (Nature Communications, 2018).

The test system of experiment [1] is Il6, Csf3, Cxcl2 and Ccl5 expression in DC2.4 cells. The experiment in a line: qRT-PCR of Il6, Csf3, Cxcl2 and Ccl5 in DC2.4 cells. It counts as cell-based, C57BL/6. As to conditions: for effect of ATRA on target gene expression: DC2.4, IL-33. (Real-time PCR tracks product formation cycle by cycle.)
Method: Also as indicated, some cells were pretreated for 3 days with 5 μM or 10 μM of ATRA before IL-33 induction. e Relative gene expression of Il6, Csf3, Cxcl2 and Ccl5 in the different samples as in d normalized to actin. f IRAK-M was stably expressed in pLKO or TET on shPin1 expressing cells, followed by induction with IL-33, before western blot to examine protein expression of IRAK-M, PIN1 and tubulin as well as g qRT-PCR to determine the relative gene expression for Il6, Csf3, Cxcl2 and Ccl5 in the different samples.
SYBR Green PCR Master Mix (Applied Biosystems, Foster City, CA) was used for two-step real-time RT-PCR analysis on an Applied Biosystems StepOnePlus Real Time PCR instrument. […] Expression value of the targeted gene in a given sample was normalized to the corresponding expression of Actin. The 2^–ΔΔCt method was used to calculate relative expression of the targeted genes.
Another experiment concerns PIN1. The experiment in a line: PIN1 expression in DC2.4 cells. It counts as cell-based, C57BL/6. The following applies: ATRA 5 or 10 μM, 3 days pretreatment, before IL-33, DC2.4.
Experiment [2] has as its system naive CD4^+ cells co-cultured with BMDCs. The experiment in a line: BMDC / naive CD4+ T cell co-culture TH2 polarization, IL-5 and IL-13 secretion. It counts as cell-based, C57 B6 mice. As to conditions: ATRA 5 µM, two days prior to and during co-culture, IL-33 50 ng/ml. On the procedure: Supplementary Figure 7. IRAK-M KO or Pin1 KO derived bone marrow dendritic cells attenuates Naïve TH2 cell differentiation upon IL-33 induction in co culture experiment. Naïve CD4+ T cells isolated from C57 B6 mice were cultured with or without IL-33 (50ng/ml) and BMDCs isolated from WT, IRAK-M KO (a) or Pin1 KO mice (b) in a 1:5 ratio for 5 days with no antigen being added. In some cases as indicated 5 µM of ATRA was added to the medium two days prior to T cell co culturing and during the experiment. Supernatants were analyzed for cytokines on day 5. The data were analyzed by a Student's two-tailed t test and the values are reported as mean ± standard errors of the means (SEM). *- statistical significance (P<0.05), **- significance (P<0.01).

Another experiment has as its system IRAK-M. As to the kind of experiment: IRAK-M protein stability, cycloheximide chase. It counts as cell-based. As to conditions: PIN1-deficient MEFs (text PIN1 KD, Fig. 4g legend PIN1 KO) co-expressing IRAK-M with PIN1 mutant. On the procedure: Fig. 4 PIN1 increases IRAK-M protein stabilization. a After IRAK-M and GFP were coexpressed in WT and PIN1 KO MEFs for 24 h, cells were split equally into 5 dishes. […] The data were analyzed by a Student’s two-tailed t test and the values are reported as mean ± standard errors of the means (SEM). *- statistical significance (P < 0.05), **- significance (P < 0.01)

`CC1=C(/C=C/C(C)=C/C=C/C(C)=C/C(=O)O)C(C)(C)CCC1` [ATRA, all-trans retinoic acid]: in experiment [1] (ATRA, even at 5 µM, IRAK-M stably expressing DC2.4 cells, IL-33), the “target gene expression (Il6, Csf3, Cxcl2, Ccl5)” value is listed as “inhibited target gene expression”. Further, the “effect of ATRA on target gene expression” value is reported as “highly attenuated” in experiment [1] (IRAK-M mutants S110E and P111A); “completely abolished” in experiment [1] (P111A mutant, 10 µM ATRA); “some reduction in gene expression still persisted” in experiment [1] (S110E mutant, 10 µM ATRA). Moreover, the PIN1 expression result in the experiment with PIN1 is recorded as “reduced PIN1 expression”. Moreover, the “IL-33-induced IL-5 and IL-13 secretion, inhibition by ATRA” value in experiment [2] is given as “significantly attenuated”.
As to “K63A: PIN1 PPIase domain mutant K63A (catalytically inactive)”, the “effect on IRAK-M half-life” value in the experiment with IRAK-M is recorded as “neither binding nor isomerizing mutants had any effect”.
Same read-out and setting: the entry for “W34A: PIN1 WW domain mutant W34A (binding defective)” is “neither binding nor isomerizing mutants had any effect”.
